From ChEMBL document CHEMBL1201862, “PubChem BioAssay data set” (2004)
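48-hour exposure; five concentrations; linearly interpolated endpoints. At the GI50, growth is halved.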 Active and inactive are the calls of the source. Cut-off read from the data, not from the text of the source: active = GI50 up to about 1.1 µM and inactive = higher.

Experiments:
Assay in all cases: DTP human tumour cell line panel, 48 h
MDA-MB-435 = test system: MDA-MB-435
TK-10 = test system: TK-10
NCI-H522 = test system: NCI-H522
SK-MEL-5 = test system: SK-MEL-5
SR = test system: SR
T47D = test system: T47D
HOP-62 = test system: HOP-62
A549 = test system: A549
MOLT-4 = test system: MOLT-4
MCF7 = test system: MCF7
ACHN = test system: ACHN
SN12C = test system: SN12C
OVCAR-3 = test system: OVCAR-3
SF-295 = test system: SF-295
PC-3 = test system: PC-3
NCI-H226 = test system: NCI-H226
EKVX = test system: EKVX
HCT-116 = test system: HCT-116
U-251 = test system: U-251
OVCAR-4 = test system: OVCAR-4

Measured: GI50

CC(=O)NC1C(OC2C(CO)OC(OCC3OC(n4ccc(N)nc4=O)C(O)C3O)C(NC(C)=O)C2O)OC(CO)C(O)C1O (stereo not given)
inactive: MDA-MB-435 > 100 µM | TK-10 > 100 µM | NCI-H522 9.2 µM | SK-MEL-5 > 100 µM | SR > 100 µM | T47D > 100 µM | HOP-62 > 100 µM | A549 > 100 µM | MOLT-4 > 29.4 µM | MCF7 > 94.6 µM | ACHN 99.8 µM | SN12C > 100 µM | OVCAR-3 > 100 µM | SF-295 > 100 µM | PC-3 > 100 µM | NCI-H226 > 100 µM | EKVX > 100 µM | HCT-116 > 100 µM | U-251 > 100 µM | OVCAR-4 > 100 µM

N#CC1(C#N)C(c2ccccc2)C=CC(c2ccc([N+](=O)[O-])cc2)C1(C#N)C#N (stereo not given)
inactive: MDA-MB-435 3.37 µM | TK-10 3.65 µM | NCI-H522 3.21 µM | SK-MEL-5 10.7 µM | SR 2.53 µM | T47D 2.61 µM | HOP-62 17.3 µM | A549 17.7 µM | MOLT-4 2.3 µM | MCF7 5.98 µM | ACHN 3.43 µM | SN12C 4.83 µM | OVCAR-3 9.98 µM | SF-295 18.5 µM | PC-3 12.2 µM | NCI-H226 17.3 µM | EKVX 14.8 µM | HCT-116 3.8 µM | U-251 20.4 µM | OVCAR-4 16.5 µM

CCOP(=O)(OCC)/C(C#N)=C/c1ccc(-c2ccc(F)cc2F)o1
inactive: MDA-MB-435 12.6 µM | TK-10 12.6 µM | NCI-H522 15.3 µM | SK-MEL-5 10.6 µM | SR 15 µM | T47D 3.3 µM | HOP-62 19.2 µM | A549 15.3 µM | MOLT-4 10.6 µM | MCF7 19.7 µM | ACHN 13.3 µM | SN12C 15.8 µM | OVCAR-3 14.9 µM | SF-295 16.4 µM | PC-3 10.8 µM | NCI-H226 16.5 µM | EKVX 16.3 µM | HCT-116 17.4 µM | U-251 14.8 µM | OVCAR-4 18.2 µM

COC(O)C12OC3CO[Si](C(C)C)(C(C)C)O[Si](C(C)C)(C(C)C)OC3C1Oc1nc(=O)ccn12 (stereo not given)
inactive: MDA-MB-435 12.3 µM | TK-10 14.3 µM | NCI-H522 4.88 µM | SK-MEL-5 7.87 µM | SR 1.23 µM | T47D 7.69 µM | HOP-62 13.7 µM | A549 12.6 µM | MOLT-4 2.15 µM | MCF7 10.5 µM | ACHN 14.1 µM | SN12C 13.3 µM | OVCAR-3 11.3 µM | SF-295 12.2 µM | PC-3 4.7 µM | NCI-H226 17.7 µM | EKVX 13.6 µM | HCT-116 8.61 µM | U-251 > 31.7 µM | OVCAR-4 14.2 µM

Cc1ccc(O)c(C(=O)/C=C/c2ccccc2)c1
inactive: MDA-MB-435 > 100 µM | TK-10 > 100 µM | NCI-H522 5.81 µM | SK-MEL-5 > 100 µM | SR > 100 µM | T47D > 100 µM | HOP-62 > 100 µM | A549 > 100 µM | MOLT-4 9.93 µM | MCF7 > 100 µM | ACHN > 100 µM | SN12C > 100 µM | OVCAR-3 > 100 µM | SF-295 > 100 µM | PC-3 > 100 µM | NCI-H226 > 100 µM | EKVX > 100 µM | HCT-116 > 100 µM | U-251 > 100 µM | OVCAR-4 78.9 µM

C[C@]12CCC(=O)C=C1CC[C@@H]1[C@@H]2CC[C@]2(C)C(=O)/C(=C/c3ccncc3)C[C@@H]12
inactive: MDA-MB-435 17.1 µM | TK-10 18.1 µM | NCI-H522 15.3 µM | SK-MEL-5 8.97 µM | SR 4.75 µM | T47D 15.9 µM | HOP-62 14.6 µM | A549 16.4 µM | MOLT-4 16.4 µM | MCF7 11.5 µM | ACHN 14.8 µM | SN12C 16.7 µM | OVCAR-3 13 µM | SF-295 15.3 µM | PC-3 12.4 µM | NCI-H226 16.9 µM | EKVX 14.6 µM | HCT-116 10.6 µM | U-251 12.4 µM | OVCAR-4 17.2 µM

Nc1ccc2c(SCC(=O)Nc3ccccc3-c3ccccc3NC(=O)CSc3c4ccccc4nc4cc(N)ccc34)c3ccccc3nc2c1
inactive: MDA-MB-435 22.1 µM | TK-10 38 µM | NCI-H522 6.52 µM | SK-MEL-5 14.6 µM | SR 4.19 µM | T47D 3.05 µM | HOP-62 33.7 µM | A549 41 µM | MOLT-4 3.35 µM | MCF7 12.4 µM | ACHN 32.8 µM | SN12C 28.5 µM | OVCAR-3 22.2 µM | SF-295 31.5 µM | PC-3 22.2 µM | NCI-H226 29.3 µM | EKVX 39.6 µM | HCT-116 24.5 µM | U-251 22 µM | OVCAR-4 29 µM
